# Experimental data: US7709636B2, “Pyrazole sulfonylurea compound and herbicide” (Nissan Chemical Industries, Ltd., priority 2004, dated 2010)
# Experiments:
# direct sown rice [1] = assay: Herbicidal effect test by soil treatment; format: in vivo, Oryza sativa; conditions: 1.6 g/a, 3 weeks after treatment
# How it was run: (§1)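 Read-out is a visual herbicidal-effect rating taken 3 weeks post-treatment. Plants grew from seed sown in sterilized diluvial soil, covered with about 1.5 cm soil, then surface-sprayed with water-diluted wettable powder at a predetermined formulation amount.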
# direct sown rice [2] = assay: Herbicidal effect test by foliage treatment; format: in vivo, Oryza sativa; conditions: 1.6 g/a; foliage treatment after growth of 14 days; 3 weeks after treatment
# How it was run: (§2)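 Herbicidal effect was rated 3 weeks after a uniform foliar spray of wettable powder diluted in water to a predetermined formulation amount. Plants had been grown 14 days from seed in sterilized diluvial soil in a greenhouse at 25 to 30° C.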
# Chenopodium album [3] = assay: Herbicidal effect test by foliage treatment; format: in vivo; conditions: 1.6 g/a; foliage treatment after growth of 14 days; 3 weeks after treatment
# How it was run: as §2
# Avena fatua [4] = assay: Herbicidal effect test by foliage treatment; format: in vivo; conditions: 1.6 g/a; foliage treatment after growth of 14 days; 3 weeks after treatment
# How it was run: as §2
# corn (Zea mays) [5] = assay: Herbicidal effect test by foliage treatment; format: in vivo; conditions: 1.6 g/a; foliage treatment after growth of 14 days; 3 weeks after treatment
# How it was run: as §2
# soybean (Glycine max) [6] = assay: Herbicidal effect test by foliage treatment; format: in vivo; conditions: 1.6 g/a; foliage treatment after growth of 14 days; 3 weeks after treatment
# How it was run: as §2
# Abutilon avicennae [7] = assay: Herbicidal effect test by foliage treatment; format: in vivo; conditions: 1.6 g/a; foliage treatment after growth of 14 days; 3 weeks after treatment
# How it was run: as §2
# Digitaria adscendes [8] = assay: Herbicidal effect test by foliage treatment; format: in vivo; conditions: 1.6 g/a; foliage treatment after growth of 14 days; 3 weeks after treatment
# How it was run: as §2
# Stellaria media [9] = assay: Herbicidal effect test by foliage treatment; format: in vivo; conditions: 1.6 g/a; foliage treatment after growth of 14 days; 3 weeks after treatment
# How it was run: as §2
# Amaranthus retroflexus [10] = assay: Herbicidal effect test by foliage treatment; format: in vivo; conditions: 1.6 g/a; foliage treatment after growth of 14 days; 3 weeks after treatment
# How it was run: as §2
# Ambrosia elatior [11] = assay: Herbicidal effect test by foliage treatment; format: in vivo; conditions: 1.6 g/a; foliage treatment after growth of 14 days; 3 weeks after treatment
# How it was run: as §2
# Echinochloa crus-galli [12] = assay: Herbicidal effect test by foliage treatment; format: in vivo; conditions: 1.6 g/a; foliage treatment after growth of 14 days; 3 weeks after treatment
# How it was run: as §2
# Black-grass [13] = assay: Herbicidal effect test by foliage treatment; format: in vivo; conditions: 1.6 g/a; foliage treatment after growth of 14 days; 3 weeks after treatment
# How it was run: as §2
# Setaria viridis [14] = assay: Herbicidal effect test by foliage treatment; format: in vivo; conditions: 1.6 g/a; foliage treatment after growth of 14 days; 3 weeks after treatment
# How it was run: as §2
# [15] = test system: Triticum aestivum (wheat); assay: Herbicidal effect test by foliage treatment; format: in vivo; conditions: 1.6 g/a; foliage treatment after growth of 14 days; 3 weeks after treatment
# How it was run: as §2
# Beta vulgaris (beet) [16] = assay: Herbicidal effect test by foliage treatment; format: in vivo; conditions: 1.6 g/a; foliage treatment after growth of 14 days; 3 weeks after treatment
# How it was run: as §2
# Polygonum blumei [17] = assay: Herbicidal effect test by foliage treatment; format: in vivo; conditions: 1.6 g/a; foliage treatment after growth of 14 days; 3 weeks after treatment
# How it was run: as §2
# Chenopodium album [18] = assay: Herbicidal effect test by soil treatment; format: in vivo; conditions: 1.6 g/a, 3 weeks after treatment
# How it was run: as §1
# Avena fatua [19] = assay: Herbicidal effect test by soil treatment; format: in vivo; conditions: 1.6 g/a, 3 weeks after treatment
# How it was run: as §1
# corn (Zea mays) [20] = assay: Herbicidal effect test by soil treatment; format: in vivo; conditions: 1.6 g/a, 3 weeks after treatment
# How it was run: as §1
# soybean (Glycine max) [21] = assay: Herbicidal effect test by soil treatment; format: in vivo; conditions: 1.6 g/a, 3 weeks after treatment
# How it was run: as §1
# Abutilon avicennae [22] = assay: Herbicidal effect test by soil treatment; format: in vivo; conditions: 1.6 g/a, 3 weeks after treatment
# How it was run: as §1
# Digitaria adscendes [23] = assay: Herbicidal effect test by soil treatment; format: in vivo; conditions: 1.6 g/a, 3 weeks after treatment
# How it was run: as §1
# Stellaria media [24] = assay: Herbicidal effect test by soil treatment; format: in vivo; conditions: 1.6 g/a, 3 weeks after treatment
# How it was run: as §1
# Amaranthus retroflexus [25] = assay: Herbicidal effect test by soil treatment; format: in vivo; conditions: 1.6 g/a, 3 weeks after treatment
# How it was run: as §1
# Ambrosia elatior [26] = assay: Herbicidal effect test by soil treatment; format: in vivo; conditions: 1.6 g/a, 3 weeks after treatment
# How it was run: as §1
# Echinochloa crus-galli [27] = assay: Herbicidal effect test by soil treatment; format: in vivo; conditions: 1.6 g/a, 3 weeks after treatment
# How it was run: as §1
# Black-grass [28] = assay: Herbicidal effect test by soil treatment; format: in vivo; conditions: 1.6 g/a, 3 weeks after treatment
# How it was run: as §1
# Setaria viridis [29] = assay: Herbicidal effect test by soil treatment; format: in vivo; conditions: 1.6 g/a, 3 weeks after treatment
# How it was run: as §1
# [30] = test system: Triticum aestivum (wheat); assay: Herbicidal effect test by soil treatment; format: in vivo; conditions: 1.6 g/a, 3 weeks after treatment
# How it was run: as §1
# Beta vulgaris (beet) [31] = assay: Herbicidal effect test by soil treatment; format: in vivo; conditions: 1.6 g/a, 3 weeks after treatment
# How it was run: as §1
# Polygonum blumei [32] = assay: Herbicidal effect test by soil treatment; format: in vivo; conditions: 1.6 g/a, 3 weeks after treatment
# How it was run: as §1
# Monochoria vaginalis [33] = assay: Herbicidal effect test in submerged condition by treatment before weed-generation (1); format: in vivo; conditions: 0.64 g/a, water surface treated on day of sowing, 3 weeks after treatment
# How it was run: (§3)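 Scores run 0 (≤5% effect) to 5 (≥90%, near-complete death), assessed visually 3 weeks post-treatment. Submerged paddy soil, water 4 cm deep, seeds sown and rice at 2.5th leaf stage transplanted; formulation diluted and poured onto water surface at sowing; greenhouse 25 to 30° C.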
# Echinochloa crus-galli [34] = assay: as above; format: in vivo; conditions: 0.64 g/a, water surface treated on day of sowing, 3 weeks after treatment
# How it was run: as §3
# Scirpus juncoides [35] = assay: as above; format: in vivo; conditions: 0.64 g/a, water surface treated on day of sowing, 3 weeks after treatment
# How it was run: as §3
# Monochoria vaginalis [36] = assay: Herbicidal effect test in submerged condition by treatment during weed-growth stage (1); format: in vivo; conditions: 0.64 g/a, treated at 1st to 2nd leaf stage, 3 weeks after treatment
# How it was run: (§4)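 Paddy-soil pots flooded to 4 cm water depth were sown and grown in a greenhouse at 25 to 30° C until weeds reached 1st to 2nd leaf stage. A wettable powder diluted in water to a predetermined formulation amount was applied to the water surface. Herbicidal effect was scored 3 weeks after treatment against set criteria.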
# Echinochloa crus-galli [37] = assay: as above; format: in vivo; conditions: 0.64 g/a, treated at 1st to 2nd leaf stage, 3 weeks after treatment
# How it was run: as §4
# Scirpus juncoides [38] = assay: as above; format: in vivo; conditions: 0.64 g/a, treated at 1st to 2nd leaf stage, 3 weeks after treatment
# How it was run: as §4
structure (smiles),measurement,setting,value
"COc1cc(OC)nc(NC(=O)NS(=O)(=O)c2c(C3=NOCC(C)(CI)O3)c(C)nn2C)n1 (centres unmarked) [Compound 8, N-((4,6-dimethoxypyrimidin-2-yl)aminocarbonyl)-4-(5-iodomethyl-5-methyl-5H,6H-1,4,2-dioxadin-3-yl)-1,3-dimethylpyrazole-5-sulfonamide]","herbicidal effect, d: direct sown rice",direct sown rice [1],2 (Herbicidal rate 20% or more and less than 40%)
same,"herbicidal effect, d: direct sown rice",direct sown rice [2],1 (Herbicidal rate 5% or more and less than 20%)
same,"herbicidal effect, K: Chenopodium album",Chenopodium album [3],4 (Herbicidal rate 70% or more and less than 90%)
same,"herbicidal effect, F: Avena fatua",Avena fatua [4],1 (Herbicidal rate 5% or more and less than 20%)
same,"herbicidal effect, b: corn (Zea mays)",corn (Zea mays) [5],4 (Herbicidal rate 70% or more and less than 90%)
same,"herbicidal effect, c: soybean (Glycine max)",soybean (Glycine max) [6],4 (Herbicidal rate 70% or more and less than 90%)
same,"herbicidal effect, H: Abutilon avicennae",Abutilon avicennae [7],5 (Herbicidal rate 90% or more (almost complete death))
same,"herbicidal effect, D: Digitaria adscendes",Digitaria adscendes [8],3 (Herbicidal rate 40% or more and less than 70%)
same,"herbicidal effect, M: Stellaria media",Stellaria media [9],4 (Herbicidal rate 70% or more and less than 90%)
same,"herbicidal effect, J: Amaranthus retroflexus",Amaranthus retroflexus [10],4 (Herbicidal rate 70% or more and less than 90%)
same,"herbicidal effect, I: Ambrosia elatior",Ambrosia elatior [11],4 (Herbicidal rate 70% or more and less than 90%)
same,"herbicidal effect, A: Echinochloa crus-galli",Echinochloa crus-galli [12],4 (Herbicidal rate 70% or more and less than 90%)
same,"herbicidal effect, G: Black-grass",Black-grass [13],0 (Herbicidal rate 5% or less (little effect))
same,"herbicidal effect, E: Setaria viridis",Setaria viridis [14],4 (Herbicidal rate 70% or more and less than 90%)
same,"herbicidal effect, e: Triticum aestivum (wheat)",[15],1 (Herbicidal rate 5% or more and less than 20%)
same,"herbicidal effect, f: Beta vulgaris (beet)",Beta vulgaris (beet) [16],4 (Herbicidal rate 70% or more and less than 90%)
same,"herbicidal effect, L: Polygonum blumei",Polygonum blumei [17],4 (Herbicidal rate 70% or more and less than 90%)
same,"herbicidal effect, K: Chenopodium album",Chenopodium album [18],2 (Herbicidal rate 20% or more and less than 40%)
same,"herbicidal effect, F: Avena fatua",Avena fatua [19],0 (Herbicidal rate 5% or less (little effect))
same,"herbicidal effect, b: corn (Zea mays)",corn (Zea mays) [20],0 (Herbicidal rate 5% or less (little effect))
same,"herbicidal effect, c: soybean (Glycine max)",soybean (Glycine max) [21],0 (Herbicidal rate 5% or less (little effect))
same,"herbicidal effect, H: Abutilon avicennae",Abutilon avicennae [22],0 (Herbicidal rate 5% or less (little effect))
same,"herbicidal effect, D: Digitaria adscendes",Digitaria adscendes [23],3 (Herbicidal rate 40% or more and less than 70%)
same,"herbicidal effect, M: Stellaria media",Stellaria media [24],4 (Herbicidal rate 70% or more and less than 90%)
same,"herbicidal effect, J: Amaranthus retroflexus",Amaranthus retroflexus [25],5 (Herbicidal rate 90% or more (almost complete death))
same,"herbicidal effect, I: Ambrosia elatior",Ambrosia elatior [26],5 (Herbicidal rate 90% or more (almost complete death))
same,"herbicidal effect, A: Echinochloa crus-galli",Echinochloa crus-galli [27],1 (Herbicidal rate 5% or more and less than 20%)
same,"herbicidal effect, G: Black-grass",Black-grass [28],3 (Herbicidal rate 40% or more and less than 70%)
same,"herbicidal effect, E: Setaria viridis",Setaria viridis [29],0 (Herbicidal rate 5% or less (little effect))
same,"herbicidal effect, e: Triticum aestivum (wheat)",[30],1 (Herbicidal rate 5% or more and less than 20%)
same,"herbicidal effect, f: Beta vulgaris (beet)",Beta vulgaris (beet) [31],2 (Herbicidal rate 20% or more and less than 40%)
same,"herbicidal effect, L: Polygonum blumei",Polygonum blumei [32],5 (Herbicidal rate 90% or more (almost complete death))
same,"herbicidal effect, C: Monochoria vaginalis",Monochoria vaginalis [33],5 (Herbicidal rate 90% or more (almost complete death))
same,"herbicidal effect, A: Echinochloa crus-galli",Echinochloa crus-galli [34],3 (Herbicidal rate 40% or more and less than 70%)
same,"herbicidal effect, B: Scirpus juncoides",Scirpus juncoides [35],4 (Herbicidal rate 70% or more and less than 90%)
same,"herbicidal effect, C: Monochoria vaginalis",Monochoria vaginalis [36],4 (Herbicidal rate 70% or more and less than 90%)
same,"herbicidal effect, A: Echinochloa crus-galli",Echinochloa crus-galli [37],4 (Herbicidal rate 70% or more and less than 90%)
same,"herbicidal effect, B: Scirpus juncoides",Scirpus juncoides [38],4 (Herbicidal rate 70% or more and less than 90%)
